This is an account of results in US9642858B2, “Use of resazurin, or analogs thereof, for antibacterial therapy” (priority 2012, dated 2017).

Each structure is given as a SMILES string. Converted amounts (≈) assume the structure as drawn. “Also recorded” adds a separate entry of the source.

Data set [1] has as its system type A F. tularensis (Schu S4). The format is cell-based, Francisella tularensis. Conditions: 44 μM.
The next data set relates to N. gonorrhoeae. Format: cell-based, Neisseria gonorrhoeae. The note with it: 44 μM.
For another data set, the system named is F. tularensis LVS. Briefly: microbe, parasite or virus in culture. Format: cell-based, Francisella tularensis.
The test system of another data set is Escherichia coli. The format is cell-based. Conditions: 44 μM.
A further data set has as its system Pseudomonas aeruginosa. The format is cell-based. Conditions: 44 μM.
The subject of data set [2] is F. tularensis LVS in HEK-293 cells. The format is cell-based, Francisella tularensis.
Data set [3] relates to F. tularensis LVS in primary human macrophages. The format is cell-based, Francisella tularensis.
The next data set concerns N. polysaccharea. The format is cell-based, Neisseria polysaccharea.
The next data set deals with N. sicca. Format: cell-based, Neisseria sicca.
In another data set the test system is F. novicida. Format: cell-based, Francisella novicida.
For data set [4], the system named is primary human macrophages. Briefly: Viability of infected macrophages treated with resazurin (visible reduction of resazurin to resorufin). Background: Alamar Blue is a resazurin reagent that responds to reducing activity.

With `O=c1ccc2[n+]([O-])c3ccc(O)cc3oc-2c1` [resazurin, 7-Hydroxy-3H-phenoxazin-3-one 10-oxide], the “bactericidal effect on chocolate II agar” value in [1] is given as “potent bactericidal effect”. For the same compound, the “bactericidal effect on chocolate II agar” value with N. gonorrhoeae is given as “potent bactericidal effect”. Moreover, in the data set with F. tularensis LVS, the F. tularensis growth entry is recorded as “growth is inhibited”; the “antibacterial activity (viable bacteria per ml)” value is on record as “have antibacterial activity”; the “antimicrobial activity, effect of medium” value was “not affected by the choice of medium”; the “bacterial viability over time” value is “significant decline in viable bacteria”. For the same compound, in the data set with F. tularensis LVS, the “bactericidal activity to F. tularensis” value is recorded as “bactericidal”, the “reduction in viable F. tularensis LVS bacteria compared to growth medium alone” value is around 10 fold and the viable bacteria result is listed as “decrease in viable bacteria”. Also, the MIC in the data set on F. tularensis LVS (Francisella tularensis, read-out: minimal inhibitory concentration against F. tularensis) amounted to 4.4 µM (≈ 1.01 µg/mL). The “bacterial viability / antimicrobial effect” value in the data set with Escherichia coli is recorded as “does not have an antimicrobial effect; also recorded: no effect on bacterial viability”. Further, the “bacterial viability / antimicrobial effect” value with Pseudomonas aeruginosa is on record as “does not have an antimicrobial effect; also recorded: no effect on bacterial viability”. In data set [2], the “intracellular growth / bacterial burden” value is given as “inhibited intracellular growth; also recorded: reduces bacterial burden” and the “viable intracellular bacteria compared to the control” value is “substantial decrease in viable bacteria”. Also, in data set [3], the “intracellular growth / bacterial burden” value was “inhibited intracellular growth; also recorded: reduces bacterial burden” and the viable intracellular bacteria result is “substantial decrease in viable bacteria”. For the same compound, the bactericidal activity entry with N. polysaccharea is on record as “bactericidal”. In addition, the bactericidal activity entry with N. sicca was “bactericidal”. Also, the bactericidal activity entry in the data set with F. novicida is listed as “bactericidal”. For the same compound, in data set [4], the “viability of macrophages (toxicity)” value is “still viable”.
For the compound `O=c1ccc2nc3ccc(O)cc3oc-2c1` [resorufin], in the data set with F. tularensis LVS, the “antibacterial activity (viable bacteria per ml)” value is given as “have antibacterial activity”, the “antimicrobial effect on F. tularensis LVS viability (CFU) relative to resazurin” value is listed as “equivalently potent antimicrobial effect” and the “bactericidal activity to F. tularensis” value is “bactericidal”.
